Patent publication US20250302983A1, “Saponin Conjugates” (priority 2018, published 2025)

How the values were obtained:
HeLa cells = test: HeLa cell viability assay (MTS): SO1861 + dianthin-EGF with PAMAM, PAMAM-conjugates, G4-dendron or chloroquine; format: cell-based, human; details: positive control
Source text: Whether or not a first proteinaceous molecule comprising saponins, either or not further comprising one or more (cleavable) linkers and/or optionally a scaffold, is able to disturb the acidic environment and […] the endosomal escape function of the at least one glycoside (saponin) can be easily determined with an assay as described in Example 3 and as known in the art. The inhibition is described as “fold amount increases of glycoside necessary to induced 50% cell killing”. […] The fold increase is to be measured in assay, essentially as described in Example 4, wherein Chloroquine, as a positive control, induces a 2-fold increase in glycoside amount, preferably saponin amount wherein the saponin is any one or more of the saponins of the invention (see Table A1, Scheme I, previous embodiments) to observe 50% cell killing.
HeLa cells were seeded in DMEM (PAN-Biotech GmbH) supplemented with 10% fetal bovine serum (PAN-Biotech GmbH) and 1% penicillin/streptomycin (PAN-Biotech GmbH), in a 96 well plate at 5,000 c/w in 100 μL/well and incubated overnight at 37° C. and 5% CO2. The next day 20× concentrated stocks of the PAMAM, PAMAM-conjugates, G4-dendron (prepared in Example 3) or chloroquine (Sigma Aldrich) samples were prepared in DMEM. […]

[1] = test system: SK-BR-3, JIMT-1, MDA-MB-468, A431, CaSki, HeLa, A2058; test: control treatments, relative cell viability on various cancer cell lines (FIG. 12); format: cell-based, human; details: wide range of concentrations toxin tested, up to 100.000 pM

Compound | fold increase in glycoside (saponin) amount to observe 50% cell killing (HeLa cells) | influence on cell viability [1]
CCN(CC)CCCC(C)Nc1ccnc2cc(Cl)ccc12 (centres unmarked) [Chloroquine] | 2 fold | –
saporin | – | do not or hardly have any influence on cell viability
